Values of other authors in patent US20260240758A1, “INJECTABLE PHENYLEPHRINE COMPOSITIONS” (Hikma Pharmaceuticals USA Inc., priority 2022, published 2026).

Conditions: phenylephrine HCl 400 μg/ml and 200 μg/ml, PVC bags, 60 days at room temperature

CNC[C@H](O)c1cccc(O)c1 [phenylephrine]
phenylephrine degraded: 4-5%
